From ChEMBL document CHEMBL1201862, “PubChem BioAssay data set” (2004)
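48-hour exposure; five concentrations; linearly interpolated endpoints. At the GI50, growth is halved.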 Active and inactive are the calls of the source. Rule as the data show it: active = GI50 up to about 1.1 µM and inactive = higher.

What was measured:
Assay in all cases: NCI anticancer screen, dose series, 48 h
[1] = test system: SK-MEL-5
[2] = test system: NCI-H226
[3] = test system: UACC-257
[4] = test system: SF-268
[5] = test system: HL-60
[6] = test system: HOP-92
[7] = test system: ACHN
[8] = test system: SK-MEL-28
[9] = test system: NCI-H23
[10] = test system: OVCAR-4
[11] = test system: OVCAR-8
[12] = test system: MDA-MB-435
[13] = test system: K562
[14] = test system: RPMI-8226
[15] = test system: SF-539
[16] = test system: M14
[17] = test system: 786-0
[18] = test system: MDA-MB-231
[19] = test system: SR
[20] = test system: KM12

Row | Compound | GI50 [1] | GI50 [2] | GI50 [3] | GI50 [4] | GI50 [5] | GI50 [6] | GI50 [7] | GI50 [8] | GI50 [9] | GI50 [10] | GI50 [11] | GI50 [12] | GI50 [13] | GI50 [14] | GI50 [15] | GI50 [16] | GI50 [17] | GI50 [18] | GI50 [19] | GI50 [20]
1 | CCSCCC(N)C(=O)O (stereo not given) | > 100 µM (inactive) | > 100 µM (inactive) | > 100 µM (inactive) | > 100 µM (inactive) | > 100 µM (inactive) | > 100 µM (inactive) | > 100 µM (inactive) | > 100 µM (inactive) | > 100 µM (inactive) | > 100 µM (inactive) | > 100 µM (inactive) | > 100 µM (inactive) | > 100 µM (inactive) | > 100 µM (inactive) | > 100 µM (inactive) | > 100 µM (inactive) | > 100 µM (inactive) | > 100 µM (inactive) | > 100 µM (inactive) | > 100 µM (inactive)
2 | NCCCCC(N)C(=O)N1CCN(c2nc(N3CCCC3)c3nc(Cl)c(NCc4ccccc4)nc3n2)CC1 (stereo not given) | 18.1 µM (inactive) | 20.8 µM (inactive) | 18.2 µM (inactive) | 20 µM (inactive) | 17 µM (inactive) | 10.3 µM (inactive) | 19.1 µM (inactive) | 20.7 µM (inactive) | 19.4 µM (inactive) | 23.2 µM (inactive) | 14 µM (inactive) | 23.2 µM (inactive) | 21.9 µM (inactive) | 17.8 µM (inactive) | 18.5 µM (inactive) | 19.1 µM (inactive) | 17.8 µM (inactive) | 18.1 µM (inactive) | 18.1 µM (inactive) | 21.8 µM (inactive)
3 | OCCN(CCO)c1ccc2c(c1)Cc1ccccc1-2 | 35.7 µM (inactive) | 44.4 µM (inactive) | 31 µM (inactive) | 26.2 µM (inactive) | 41.7 µM (inactive) | 21.9 µM (inactive) | 32.1 µM (inactive) | 64.3 µM (inactive) | 51.4 µM (inactive) | 57.1 µM (inactive) | 52.5 µM (inactive) | 51.6 µM (inactive) | 34 µM (inactive) | 44.8 µM (inactive) | 42.9 µM (inactive) | 32.2 µM (inactive) | > 100 µM (inactive) | 34 µM (inactive) | 29.6 µM (inactive) | 38.3 µM (inactive)
4 | O=C(CC(=O)c1ccccc1NC1=Cc2ccccc2C(=O)C1=O)C(=O)NC1=C(Cl)C(=O)c2ccccc2C1=O | 0.752 µM (active) | 7.52 µM (inactive) | 2.04 µM (inactive) | 2.93 µM (inactive) | 0.605 µM (active) | 4.51 µM (inactive) | 3.56 µM (inactive) | 1.89 µM (inactive) | 1.57 µM (inactive) | 3.36 µM (inactive) | 3.12 µM (inactive) | 1.85 µM (inactive) | 1.29 µM (inactive) | 1.56 µM (inactive) | 4.31 µM (inactive) | 1.47 µM (inactive) | 2.48 µM (inactive) | 2.42 µM (inactive) | 1.44 µM (inactive) | 4.28 µM (inactive)
5 | CC1(C)CCCCCCC2CC2CCCCCC(C)(C)C1=O (stereo not given) | 49.7 µM (inactive) | > 100 µM (inactive) | 37.8 µM (inactive) | > 100 µM (inactive) | 16.6 µM (inactive) | 62.5 µM (inactive) | > 100 µM (inactive) | > 100 µM (inactive) | 69.2 µM (inactive) | > 100 µM (inactive) | > 100 µM (inactive) | 49.9 µM (inactive) | 29.9 µM (inactive) | 24.4 µM (inactive) | > 100 µM (inactive) | > 100 µM (inactive) | 64 µM (inactive) | 60.3 µM (inactive) | 0.787 µM (active) | 92.5 µM (inactive)
6 | C/C(Cl)=N/OC(=O)Nc1ccc(F)c([N+](=O)[O-])c1 | 14 µM (inactive) | 26.4 µM (inactive) | 20.7 µM (inactive) | 15.4 µM (inactive) | 1.94 µM (inactive) | 5.4 µM (inactive) | 3.02 µM (inactive) | 17.6 µM (inactive) | 20 µM (inactive) | 7.36 µM (inactive) | 8.91 µM (inactive) | 14.5 µM (inactive) | 2.57 µM (inactive) | 2.65 µM (inactive) | 33.3 µM (inactive) | 19.2 µM (inactive) | 4 µM (inactive) | 17.5 µM (inactive) | 8.57 µM (inactive) | 17.1 µM (inactive)
7 | CC(=O)OC12c3ccccc3-c3ccccc3C1C(C(=O)O)C2(Cl)C(=O)O (stereo not given) | > 10 µM (inactive) | > 10 µM (inactive) | > 10 µM (inactive) | > 10 µM (inactive) | > 10 µM (inactive) | > 10 µM (inactive) | > 10 µM (inactive) | > 10 µM (inactive) | > 10 µM (inactive) | > 10 µM (inactive) | > 10 µM (inactive) | > 10 µM (inactive) | > 10 µM (inactive) | > 10 µM (inactive) | > 10 µM (inactive) | > 10 µM (inactive) | > 10 µM (inactive) | > 10 µM (inactive) | > 10 µM (inactive) | > 10 µM (inactive)
